Reference: ChEMBL document CHEMBL1124630, “Fluoronaphthyridines and quinolones as antibacterial agents. 1. Synthesis and structure-activity relationships of new 1-substituted derivatives” (J Med Chem, 1989)
In brackets after ≈: the same amount, converted by molar mass.

How the values were obtained:
[1] = test system: Escherichia coli; test: In vitro antibacterial activity against Escherichia coli (A 15119); type: functional
[2] = test system: Enterobacter cloacae; test: In vitro antibacterial activity against Enterobacter cloacae (A 9656); type: functional
[3] = test system: Klebsiella pneumoniae; test: In vitro antibacterial activity against Klebsiella pneumoniae (A 9664); type: functional
[4] = test system: Morganella morganii; test: In vitro antibacterial activity against Morganella morganii (A 15153); type: functional
[5] = test system: Pseudomonas aeruginosa; test: In vitro antibacterial activity against Pseudomonas aeruginosa (A 9843); type: functional
[6] = test system: Staphylococcus aureus; test: In vitro antibacterial activity against Staphylococcus aureus Smith (A9537); type: functional
[7] = test system: Canis familiaris; test: Area under the concentration/ time in plasma after oral administration in dog (25 mg/kg); type: ADME, organism-based, Canis lupus familiaris; conditions: in vivo
[8] = Maximum concentration in plasma after oral administration in dog (25 mg/kg); type: ADME, organism-based, Canis lupus familiaris; parameters: dose 25 mg/kg, route oral
[9] = Urinary recovery after 24 hr in plasma after oral administration in dog (25 mg/kg); type: ADME, organism-based, Canis lupus familiaris; conditions: urine, read-out: UR
[10] = test system: Escherichia coli; test: In vivo efficacy in systemic infection due to Escherichia coli (A 15119) in mice; type: functional; conditions: read-out: PD50
[11] = test system: Klebsiella pneumoniae; test: In vivo efficacy in systemic infection due to Klebsiella pneumoniae (A 9664) in mice; type: functional; conditions: read-out: PD50
[12] = test system: Pseudomonas aeruginosa; test: In vivo efficacy in systemic infection due to Pseudomonas aeruginosa (A 9843) in mice; type: functional; conditions: read-out: PD50
[13] = test system: Staphylococcus aureus; test: In vivo efficacy in systemic infection due to Staphylococcus aureus Smith (A 9537) in mice; type: functional; conditions: read-out: PD50
[14] = Half-life in plasma after oral administration in dog (25 mg/kg); type: ADME, organism-based, Canis lupus familiaris
[15] = test system: Morganella morganii; test: In vitro antibacterial activity against M. morganii(A 15153); type: functional
[16] = Lethal dose of compound in OF1-strain female swiss mice after oral administration; type: toxicity, organism-based; conditions: mouse, in vivo
[17] = Escherichia coli, read-out: MIC
[18] = Enterobacter cloacae, read-out: MIC
[19] = Klebsiella pneumoniae, read-out: MIC
[20] = Morganella morganii, read-out: MIC
[21] = Pseudomonas aeruginosa, read-out: MIC
[22] = Staphylococcus aureus, read-out: MIC

| Structure (SMILES) | MIC [1, 17] [µg/mL] | MIC [2, 18] [µg/mL] | MIC [3, 19] [µg/mL] | MIC [4, 20] [µg/mL] | MIC [5, 21] [µg/mL] | MIC [6, 22] [µg/mL] | further results |
| --- | --- | --- | --- | --- | --- | --- | --- |
| CC(C)n1cc(C(=O)O)c(=O)c2cc(F)c(N3CCNCC3)nc21 | 0.25 (≈ 0.748 µM) | 0.5 (≈ 1.5 µM) | 1 (≈ 2.99 µM) | 1 (≈ 2.99 µM) | 4 (≈ 12 µM) | 2 (≈ 5.98 µM) | – |
| O=C(O)c1cn(C2CC2)c2cc(N3CCNCC3)c(F)cc2c1=O [CIPROFLOXACIN] | – | – | 0.03 (≈ 0.0905 µM) | 0.015 (≈ 0.0453 µM) | 0.13 (≈ 0.392 µM) | 0.13 (≈ 0.392 µM) | AUC [7]: 20 µg/mL; Cmax [8]: 3000 ng/mL; dose excreted at 24 h [9]: 17%; ED50 [10]: 0.7 mg/kg; ED50 [11]: 1.5 mg/kg; ED50 [12]: 5 mg/kg; ED50 [13]: 4 mg/kg |
| CC1(C)CC1n1cc(C(=O)O)c(=O)c2cc(F)c(N3CCNCC3)cc21 (stereo unspecified) | 1 (≈ 2.78 µM) | 4 (≈ 11.1 µM) | 2 (≈ 5.56 µM) | 8 (≈ 22.3 µM) | 32 (≈ 89 µM) | 1 (≈ 2.78 µM) | – |
| CC(C)(C)n1cc(C(=O)O)c(=O)c2cc(F)c(N3CCNCC3)nc21 | 0.015 (≈ 0.0431 µM) | 0.06 (≈ 0.172 µM) | 0.13 (≈ 0.373 µM) | – | 1 (≈ 2.87 µM) | 0.06 (≈ 0.172 µM) | AUC [7]: 50 µg/mL; Cmax [8]: 5800 ng/mL; half-life [14]: 4.8 h; dose excreted at 24 h [9]: 12%; ED50 [10]: 2.4 mg/kg; ED50 [11]: 5 mg/kg; MIC [15]: 0.25 µg/mL (≈ 0.718 µM); LD50 [16]: > 2500 mg/kg; ED50 [12]: 12 mg/kg; ED50 [13]: 1.1 mg/kg |
| O=C(O)c1cn(-c2ccc(F)cc2)c2nc(N3CCNCC3)c(F)cc2c1=O | 0.05 (≈ 0.129 µM) | – | 0.1 (≈ 0.259 µM) | – | 0.39 (≈ 1.01 µM) | 0.39 (≈ 1.01 µM) | – |
| O=C(O)c1cn(Cc2ccccc2)c2cc(N3CCNCC3)c(F)cc2c1=O | 0.25 (≈ 0.655 µM) | 0.5 (≈ 1.31 µM) | 0.5 (≈ 1.31 µM) | 4 (≈ 10.5 µM) | 0.5 (≈ 1.31 µM) | 0.5 (≈ 1.31 µM) | – |
| O=C(O)c1cn(C2CC2)c2c(F)c(N3CCNCC3)c(F)cc2c1=O | 0.03 (≈ 0.0859 µM) | 0.06 (≈ 0.172 µM) | 0.06 (≈ 0.172 µM) | 0.008 (≈ 0.0229 µM) | 0.25 (≈ 0.716 µM) | 0.13 (≈ 0.372 µM) | – |
| O=C(O)c1cn(C2(c3ccccc3)CC2)c2cc(N3CCNCC3)c(F)cc2c1=O | 0.13 (≈ 0.319 µM) | 0.25 (≈ 0.614 µM) | 0.25 (≈ 0.614 µM) | 0.25 (≈ 0.614 µM) | 4 (≈ 9.82 µM) | 0.13 (≈ 0.319 µM) | – |
| O=C(O)c1cn(C2CCC2)c2cc(N3CCNCC3)c(F)cc2c1=O | 0.13 (≈ 0.376 µM) | 1 (≈ 2.9 µM) | 0.13 (≈ 0.376 µM) | 0.5 (≈ 1.45 µM) | 1 (≈ 2.9 µM) | 0.5 (≈ 1.45 µM) | – |
| CC(c1ccccc1)n1cc(C(=O)O)c(=O)c2cc(F)c(N3CCNCC3)cc21 (stereo unspecified) | 2 (≈ 5.06 µM) | 4 (≈ 10.1 µM) | 4 (≈ 10.1 µM) | 16 (≈ 40.5 µM) | 32 (≈ 80.9 µM) | 4 (≈ 10.1 µM) | – |
| CCC(C)(C)n1cc(C(=O)O)c(=O)c2cc(F)c(N3CCNCC3)cc21 | 0.5 (≈ 1.38 µM) | 1 (≈ 2.77 µM) | 1 (≈ 2.77 µM) | 4 (≈ 11.1 µM) | 4 (≈ 11.1 µM) | 0.25 (≈ 0.692 µM) | – |
| CC1(n2cc(C(=O)O)c(=O)c3cc(F)c(N4CCNCC4)cc32)CC1 | 0.06 (≈ 0.174 µM) | 0.5 (≈ 1.45 µM) | 0.25 (≈ 0.724 µM) | 0.25 (≈ 0.724 µM) | 0.5 (≈ 1.45 µM) | 0.25 (≈ 0.724 µM) | – |
| O=C(O)c1cn(-c2ccc(F)cc2)c2cc(N3CCNCC3)c(F)cc2c1=O [SARAFLOXACIN] | 0.05 (≈ 0.13 µM) | – | 0.02 (≈ 0.0519 µM) | – | 0.39 (≈ 1.01 µM) | 0.2 (≈ 0.519 µM) | – |
| O=C(O)c1cn(C23CC4CC(CC(C4)C2)C3)c2cc(N3CCNCC3)c(F)cc2c1=O | 2 (≈ 4.7 µM) | 4 (≈ 9.4 µM) | 8 (≈ 18.8 µM) | 32 (≈ 75.2 µM) | 63 (≈ 148 µM) | 8 (≈ 18.8 µM) | – |
| C=C(C)n1cc(C(=O)O)c(=O)c2cc(F)c(N3CCNCC3)cc21 | 0.13 (≈ 0.392 µM) | 0.06 (≈ 0.181 µM) | 0.25 (≈ 0.754 µM) | 0.13 (≈ 0.392 µM) | 0.5 (≈ 1.51 µM) | 0.5 (≈ 1.51 µM) | – |
| O=C(O)c1cn(CC2CC2)c2cc(N3CCNCC3)c(F)cc2c1=O | 0.5 (≈ 1.45 µM) | 4 (≈ 11.6 µM) | 2 (≈ 5.79 µM) | 1 (≈ 2.9 µM) | 4 (≈ 11.6 µM) | 1 (≈ 2.9 µM) | – |
| CCn1cc(C(=O)O)c(=O)c2cc(F)c(N3CCNCC3)cc21 [NORFLOXACIN] | 0.13 (≈ 0.407 µM) | 0.06 (≈ 0.188 µM) | 0.03 (≈ 0.0939 µM) | 0.015 (≈ 0.047 µM) | 0.5 (≈ 1.57 µM) | 0.25 (≈ 0.783 µM) | ED50 [10]: 3 mg/kg; ED50 [11]: 8 mg/kg; LD50 [16]: > 2500 mg/kg; ED50 [12]: 16 mg/kg; ED50 [13]: 10 mg/kg |
| CCn1cc(C(=O)O)c(=O)c2cc(F)c(N3CCNCC3)nc21 [ENOXACIN] | 0.13 (≈ 0.406 µM) | 0.5 (≈ 1.56 µM) | 0.5 (≈ 1.56 µM) | 0.13 (≈ 0.406 µM) | 0.5 (≈ 1.56 µM) | 0.25 (≈ 0.78 µM) | – |
| CC1CCC1n1cc(C(=O)O)c(=O)c2cc(F)c(N3CCNCC3)cc21 (stereo unspecified) | 2 (≈ 5.56 µM) | 32 (≈ 89 µM) | 4 (≈ 11.1 µM) | 16 (≈ 44.5 µM) | 32 (≈ 89 µM) | 4 (≈ 11.1 µM) | – |
| O=C(O)c1cn(C2CC=CC2)c2cc(N3CCNCC3)c(F)cc2c1=O | 1 (≈ 2.8 µM) | 8 (≈ 22.4 µM) | 1 (≈ 2.8 µM) | 8 (≈ 22.4 µM) | 8 (≈ 22.4 µM) | 2 (≈ 5.6 µM) | – |
| CC1CC1n1cc(C(=O)O)c(=O)c2cc(F)c(N3CCNCC3)cc21 (stereo in doubt; 13) | – | – | 1 (≈ 2.9 µM) | – | 1 (≈ 2.9 µM) | – | MIC [1]: 0.13 µg/mL (≈ 0.376 µM); MIC [2]: 0.5 µg/mL (≈ 1.45 µM); MIC [4]: 0.25 µg/mL (≈ 0.724 µM); MIC [6]: 0.13 µg/mL (≈ 0.376 µM) |
| CC1(n2cc(C(=O)O)c(=O)c3cc(F)c(N4CCNCC4)cc32)CCC1 | 0.25 (≈ 0.696 µM) | 1 (≈ 2.78 µM) | 2 (≈ 5.56 µM) | 0.5 (≈ 1.39 µM) | 8 (≈ 22.3 µM) | 0.5 (≈ 1.39 µM) | – |
| CC1CC1n1cc(C(=O)O)c(=O)c2cc(F)c(N3CCNCC3)cc21 (stereo in doubt; 12) | – | – | – | – | – | – | MIC [1]: 0.06 µg/mL (≈ 0.174 µM); MIC [2]: 0.13 µg/mL (≈ 0.376 µM); MIC [3]: 2 µg/mL (≈ 5.79 µM); MIC [4]: 1 µg/mL (≈ 2.9 µM); MIC [5]: 2 µg/mL (≈ 5.79 µM); MIC [6]: 1 µg/mL (≈ 2.9 µM) |
| CC(C)(C)n1cc(C(=O)O)c(=O)c2cc(F)c(N3CCNCC3)c(F)c21 | 0.06 (≈ 0.164 µM) | 0.25 (≈ 0.684 µM) | 0.25 (≈ 0.684 µM) | 0.5 (≈ 1.37 µM) | 4 (≈ 10.9 µM) | 0.25 (≈ 0.684 µM) | – |
| C=C(C)n1cc(C(=O)O)c(=O)c2cc(F)c(N3CCNCC3)nc21 | 0.13 (≈ 0.391 µM) | 0.25 (≈ 0.752 µM) | 0.13 (≈ 0.391 µM) | 0.5 (≈ 1.5 µM) | 2 (≈ 6.02 µM) | 0.5 (≈ 1.5 µM) | ED50 [12]: 20 mg/kg; ED50 [13]: 15 mg/kg |
| CC(C)n1cc(C(=O)O)c(=O)c2cc(F)c(N3CCNCC3)cc21 | 0.5 (≈ 1.5 µM) | 2 (≈ 6 µM) | 1 (≈ 3 µM) | 0.25 (≈ 0.75 µM) | 1 (≈ 3 µM) | 1 (≈ 3 µM) | – |
| CC(C)(C)n1cc(C(=O)O)c(=O)c2cc(F)c(N3CCNCC3)cc21 | 0.06 (≈ 0.173 µM) | 0.13 (≈ 0.374 µM) | 0.13 (≈ 0.374 µM) | 0.25 (≈ 0.72 µM) | 0.5 (≈ 1.44 µM) | 0.06 (≈ 0.173 µM) | AUC [7]: 50 µg/mL; Cmax [8]: 6400 ng/mL; half-life [14]: 4.4 h; dose excreted at 24 h [9]: 17%; LD50 [16]: > 2500 mg/kg; ED50 [12]: 18 mg/kg; ED50 [13]: 8 mg/kg |
| O=C(O)c1cn(C2CC2)c2nc(N3CCNCC3)c(F)cc2c1=O | 0.06 (≈ 0.181 µM) | 0.06 (≈ 0.181 µM) | 0.06 (≈ 0.181 µM) | 0.06 (≈ 0.181 µM) | 0.06 (≈ 0.181 µM) | 0.25 (≈ 0.752 µM) | ED50 [10]: 0.5 mg/kg; ED50 [11]: 2.2 mg/kg; ED50 [12]: 3.6 mg/kg; ED50 [13]: 6.7 mg/kg |
